Data taken from patent US7888338B2, “7-(2-cyclohexylidene-ethylidene)-spiro[4.5]decanes” (K.U. Leuven Research & Development, priority 2004, dated 2011).

How the values were obtained:
Vitamin D Receptor (VDR) = molecular target: T1, Vitamin D Receptor (VDR) (Sus scrofa, UniProt A3RGC1); details: relative affinity from concentration displacing 50% of [3H]1α,25(OH)2D3; 1α,25(OH)2D3 assigned 100%; 4° C., 20 hours
T1 sequence (A3RGC1 1-427): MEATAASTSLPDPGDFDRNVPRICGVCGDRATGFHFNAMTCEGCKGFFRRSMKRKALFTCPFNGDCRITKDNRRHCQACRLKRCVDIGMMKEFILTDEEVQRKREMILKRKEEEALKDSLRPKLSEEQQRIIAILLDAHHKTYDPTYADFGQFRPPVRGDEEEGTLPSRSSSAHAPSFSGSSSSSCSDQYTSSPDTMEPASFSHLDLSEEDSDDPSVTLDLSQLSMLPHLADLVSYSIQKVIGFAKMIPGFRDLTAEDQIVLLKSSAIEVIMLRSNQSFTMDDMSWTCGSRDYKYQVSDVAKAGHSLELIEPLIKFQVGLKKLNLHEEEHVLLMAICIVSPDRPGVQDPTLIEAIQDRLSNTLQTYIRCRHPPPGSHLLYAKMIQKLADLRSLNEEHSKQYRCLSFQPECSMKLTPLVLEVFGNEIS

MCF-7 cells = test: Measurement of cell proliferation, breast carcinoma cells MCF-7, [3H]thymidine incorporation; format: cell-based; details: cell proliferation ([3H]thymidine incorporation), relative to control 1α,25(OH)2D3 = 100
Experimental: Selected compounds of the present invention are evaluated for their effect on cell proliferation. Malignant MCF-7 cells are cultured in DMEM nutrient mix F12 (HAM) medium which is supplemented with 10% heat inactivated FCS, glutamine (2 mM), penicillin (100 units/mL) and streptomycin (0.1 mg/mL). The cultures are maintained at 37° C. in an atmosphere of humidified air containing 5% CO2. The MCF-7 cells are seeded at approximately 5×10^3 cells/well in the DMEM modified medium in a 96-well microtiter plate. […] Finally, 1 μCi of [^3H]thymidine is added to each well and the cells are harvested after a further 4 hour incubation period. The cells are harvested with a Parckard Harvester and the cell count measured by a Packard Topcount System.

HL-60 cells = test: Promyelocytic leukemia cells (HL-60), differentiation markers (NBT reduction assay); format: cell-based; details: relative to control 1α,25(OH)2D3 = 100
Experimental: Selected compounds of the present invention are evaluated for their effect on cell proliferation. Falcon tissue chambers are seeded with 4×10^4 cells/cm^2 of HL-60 cells using RPMI 1640 medium supplemented with 20% FCS and gentamycin (50 μg/mL) in a final cell volume of 5 mL. The cultures are maintained at 37° C. in an atmosphere of humidified air containing 5% CO2. […] After 4 days, the dishes are shaken to lose adherent cells. The cells are then washed twice in RPMI medium, counted, and then assayed for differentiation markers (NBT reduction assay). Superoxide production is measured as NBT reducing activity as described by Ostrem. V. K et al. Proc Natl Acad Sci USA,. 1987 84: 2610-2614. HL-60 cells at 1×10^6/mL are mixed with an equal volume of freshly prepared solution of phorbol 12-myristate 13-acetate (200 ng/mL) and NBT ([…]) and incubated for 30 minutes at 37° C. The percentage of cells containing black formazan deposits is determined using a hemacytometer.

[1] = molecular target: T2, Human Vitamin D Binding Protein (hDBP) (Homo sapiens, UniProt P02774); test: Affinity for Human Vitamin D Binding Protein (hDBP), displacement of [3H]1α,25(OH)2D3; details: relative affinity from concentration displacing 50% of [3H]1α,25(OH)2D3, 1α,25(OH)2D3 assigned 100%, 4° C.
T2 sequence (P02774 17-474): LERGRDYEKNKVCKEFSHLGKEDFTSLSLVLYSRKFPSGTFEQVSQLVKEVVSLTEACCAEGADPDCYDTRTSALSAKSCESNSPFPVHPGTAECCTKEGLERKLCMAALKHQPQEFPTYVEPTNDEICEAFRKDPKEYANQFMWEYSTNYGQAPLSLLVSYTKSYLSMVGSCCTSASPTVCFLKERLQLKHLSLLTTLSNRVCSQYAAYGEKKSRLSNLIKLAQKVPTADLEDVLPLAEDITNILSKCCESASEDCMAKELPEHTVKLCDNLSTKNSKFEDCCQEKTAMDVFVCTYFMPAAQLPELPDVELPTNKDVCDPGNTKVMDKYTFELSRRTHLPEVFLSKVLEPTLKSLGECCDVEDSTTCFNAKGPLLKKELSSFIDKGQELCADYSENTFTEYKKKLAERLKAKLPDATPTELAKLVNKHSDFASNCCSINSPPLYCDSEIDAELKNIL
Experimental: The solution is incubated for 3 hours at 4° C. Final phase separation is obtained by adding 0.5 mL of cold destran-coated charcoal.

[2] = In vivo determination of calcium levels (serum calcium, femur calcium); set-up: species or system NMRI mice; details: for Femur Ca: NMRI mice, IP daily for 7 consecutive days
Source text: . Table VII presents the serum and femur calcium levels in mice after intraperitoneal injections after 7 consecutive days.

Compound | VDR binding % (Vitamin D Receptor (VDR)) | hDBP binding % [1] | less calcemic than the control ([2]; mouse, in vivo) | estimated serum calcium ([2]; mouse, in vivo, ip) | MCF-7 (MCF-7 cells) | HL-60 (HL-60 cells) | Femur Ca ([2]; 0.1 μg/kg/d) | Femur Ca ([2]; 0.2 μg/kg/d) | Femur Ca ([2]; 0.4 μg/kg/d) | estimated serum calcium ([2]; as compared with 1α,25(OH)2D3 (control assigned 100%), mice, IP daily, 7 consecutive days)
CC(C)(O)CCC[C@H]1CC[C@@]2(CCC/C(=C\C=C3C[C@@H](O)C[C@H](O)C3)C2)C1 [(1R,3R)-5-{2-[(2S,5S)-2-(4-Hydroxy-4-methyl-pentyl)-spiro[4.5]dec-(7E)-ylidene]-ethylidene}-cyclo-hexane-1,3-diol] | 0.7% | 0% | – | – | 20 | 8 | – | – | – | –
CC(C)(O)CCC[C@H]1CC[C@]2(CCC/C(=C\C=C3C[C@@H](O)C[C@H](O)C3)C2)C1 [(1R,3R)-5-{2-[(2S,5R)-2-(4-Hydroxy-4-methyl-pentyl)-spiro[4.] [(1R,3R)-5-{2-[(2S,5R)-2-(4-hydroxy-4-methyl-pentyl)-spiro[4.5]dec-(7E)-ylidene]-ethylidene}-cyclohexane-1,3-diol] | 0.8% | 3% | – | – | 50 | 10 | – | – | – | –
CC(C)(O)CCCC1CCC2(CCC/C(=C/C=C3C[C@@H](O)C[C@H](O)C3)C2)C1 (stereo in doubt) [(1R,3R)-5-{2-[(2S, 5R)-2-(4-hydroxy-4-methylpentyl)-spiro[4.5]dec-(7Z)-ylidene]-ethylidene}-cyclo-hexane-1,3-diol] | 0.4% | 3% | – | – | 8 | 0.9 | – | – | – | –
C=C1/C(=C\C=C2/CCC[C@]3(C)[C@@H]([C@H](C)CCCC(C)(C)O)CC[C@@H]23)C[C@@H](O)C[C@@H]1O [1α,25(OH)2D3, 1α,25-dihydroxyvitamin D3] | – | – | – | – | – | 100 | 10.9 mg | 10.3 mg | 8.9 mg | 100%
CC(C)(O)CCC[C@H]1CC[C@@]2(CCC/C(=C/C=C3C[C@@H](O)C[C@H](O)C3)C2)C1 [(1R,3R)-5-{2-[(2S,5S)-2-(4-Hydroxy-4-methyl-pentyl)-spiro[4.5]dec-(7Z)-ylidene]-ethylidene}-cyclo-hexane-1,3-diol] | 0% | 0% | – | – | 3 | 0.5 | – | – | – | –
CC(C)(O)CCC[C@H]1CC[C@]2(CCC/C(=C\C=C3C[C@@H](O)C[C@H](O)C3)C2)C1 [(1R,3R)-5-{2-[(2R,5S)-2-(4-Hydroxy-4-methyl-pentyl)-spiro[4.] [(1R,3R)-5-{(E)-(2R,5S))-2-[2-(4-hydroxy-4-methylpentyl)-spiro[4.5]dec-7-ylidene]-ethylidene}-cyclohexane-1,3-diol] | 0.4% | 0% | – | – | 9 | 4 | – | – | – | –

Further lines, with some results ahead:

VDR binding % (Vitamin D Receptor (VDR)) | hDBP binding % [1] | less calcemic than the control ([2]; mouse, in vivo) | estimated serum calcium ([2]; mouse, in vivo, ip) | Compound | MCF-7 (MCF-7 cells) | HL-60 (HL-60 cells) | Femur Ca ([2]; 0.1 μg/kg/d) | Femur Ca ([2]; 0.2 μg/kg/d) | Femur Ca ([2]; 0.4 μg/kg/d) | estimated serum calcium ([2]; as compared with 1α,25(OH)2D3 (control assigned 100%), mice, IP daily, 7 consecutive days)
0% | 0% | – | – | CC(C)(O)CCC[C@H]1CC[C@]2(CCC/C(=C/C=C3C[C@@H](O)C[C@H](O)C3)C2)C1 [(1R,3R)-5-{(Z)-(2R,5S))-2-[2-(4-hydroxy-4-methylpentyl)-spiro[4.5]dec-7-ylidene]-ethylidene}-cyclohexane-1,3-diol] | 4 | <1 | – | – | – | –
0.8% | 3% | – | – | CC(C)(O)CCC[C@@H]1CC[C@]2(CCC/C(=C/C=C3C[C@@H](O)C[C@H](O)C3)C2)C1 [(1R,3R)-5-{(Z)-(2R,5R))-2-[2-(4-hydroxy-4-methylpentyl)-spiro[4.5]dec-7-ylidene]-ethylidene}-cyclohexane-1,3-diol] | 75 | 8 | – | – | – | –
10% | 3% | approximately 200 times | 0.5% | CC(C)(O)CCC[C@@H]1CC[C@]2(CCC/C(=C\C=C3C[C@@H](O)C[C@H](O)C3)C2)C1 [(1R,3R)-5-{(E)-(2R,5R))-2-[2-(4-hydroxy-4-methylpentyl)-spiro[4.5]dec-7-ylidene]-ethylidene}-cyclohexane-1,3-diol] | 450 | 200 | – | – | – | –
